In patent US20060063944A1, “Estrone derivatives and process for producing same” (CHUGAI SEIYAKU KABUSHIKI KAISHA, priority 2002, published 2006):

Assays:
breast cancer = conditions: cited from earlier work
[1] = test system: increase in the weight of the uterus induced by 17β-estradiol benzoate; test: Anti-estrogen activity in oral administration (suppression of estradiol-induced increase in uterus weight in ovariectomized mice); assay type: in vivo; conditions: ovariectomized ICR mice, oral 10 mg/kg once a day for 3 days, 17β-estradiol benzoate 0.1 μg s.c.
Method: In the test, each of the test compounds and a control compound were suspended in a 5% gum arabic solution and administered to the mice orally in doses of 10 mg/kg on a once-a-day basis for 3 days. Twenty-four hours after the administration of the final dose, the test animals were slaughtered and the uterus was extracted and its weight was measured.

[2] = AUC measurement in oral administration, test with mice; assay type: in vivo; conditions: plasma, 30 mg/kg, 5% gum arabic suspension; for AUC(0-inf): female, ICR, mouse, po; for AUC∞: ICR mice
Method: (§1) The AUC of specified compounds in oral administration was measured by the following tests.
A 5% gum arabic suspension (10 ml/kg) of a test substance (30 mg/kg) was forcibly administered orally into ICR mice (female, 8-10 week old) by means of a mouse stomach probe and after the lapse of specified periods of time (15 minutes, 30 minutes, and 1, 2, 4, 6, 8, 24 and 48 hours), whole blood was taken from the abdominal large vein (n=3 for each time period). The concentration of the test substance in the sampled plasma was measured by HPLC (eluant: acetonitrile/water) and AUC was determined by moment analysis from the average plasma concentration for each time period. The test substances were compound 1, compound 2, compound 4 and compound 5. Two control compounds were used, one being the first component prepared in step 1 of Example 1 (control compound 2) and the other being the second component (control compound 1).

[3] = AUC measurement in oral administration, test with monkeys; assay type: in vivo; conditions: female, cynomolgus monkey, 3 mg/kg, PEG/water/ethanol solution, plasma
Method: as §1
A PEG/water/ethanol [8/4/3 (v/v)] solution (3 ml/kg) of a test substance (3 mg/kg) was administered orally into cynomolgus monkeys (female, 3-5 years old, 2.5-4 kg) through a catheter inserted from the nostrils into the stomach and about 1 ml of blood was taken over a period of 48 hours at specified time intervals (15 minutes, 30 minutes, and 1, 2, 4, 6, 8, 10, 24 and 48 hours). The concentration of the test substance in the sampled plasma was measured by use of LC/MS/MS (ESI, eluant: acetonitrile/water) and AUC was determined by moment analysis. The test substances were compound 1 and compound 4. The second component prepared in step 1 of Example 1 was used as control compound 1.

[4] = molecular target: T1, intranuclear estrogen receptor (EgR) (Homo sapiens, UniProt P03372); test: Estrogen receptor downregulating activity (intranuclear EgR content in MCF-7); assay type: cell-based; conditions: MCF-7 cells; for DC50: 2 days with compound, ER-EIA, read-out: IC50 (intranuclear EgR content)
T1 construct: endogenous in cells; host or cells: MCF-7 (ATCC)
Method: Tris(hydroxymethyl)aminomethane, dithiothreitol and glycerol were obtained from Nacalai Tesque. Protease inhibitor tablets were obtained from Boehringer Mannheim. Human breast cancer cell line MCF-7 was obtained from ATCC, fetal calf serum (FCS) from Hyclone, DMEM from Invitrogen, and PBS(−) from Nissui.
Tris-HCl buffer (1 mol/L, pH=7.4) was diluted 50-fold with distilled water to a concentration of 20 mmol/L (pH=7.4). To the diluted buffer, dithiothreitol and glycerol were added to give respective final concentrations of 1 mmol/L and 10%. Further, protease inhibitor tablets were added, with one tablet per 50 mL of buffer. The thus conditioned solution was used as a solubilizing buffer.
Samples for quantitating the intranuclear estrogen receptor (EgR) were prepared by the following procedure. MCF-7 cultivated in 5% FCS/DMEM was sown on 6-cm dishes at a concentration of 4×10^5 cells/dish and cultivated for 3 days; cultivation was continued for an additional 2 days in the presence of compound 1 or compound 2 at final concentrations of 1-100 nmol/L or in the presence of compound 4 at final concentrations of 1-1,000 nmol/L or compound 5 at final concentrations of 1-10,000 nmol/L. Thereafter, the cells were washed with PBS(−), mixed with the solubilizing buffer, subjected to two cycles of freezing at −80° C. and thawing at room temperature, and centrifuged at 4° C. for 10 minutes at 4000 rpm (centrifuge: TOMY, Model MX-150). To the precipitation, the solubilizing buffer containing 500 mmol/L of NaCl was added and the mixture was treated with a micro-tube mixer (TOMY, Model MT-360) at 4° C. for about 30 minutes. Following centrifugation at 4° C. for 30 minutes at 15,000 rpm (centrifuge: TOMY, Model MX-150), the supernatant was collected and stored at −80° C. as an extracted nuclear sample. The EgR content in the extracted nuclear sample was measured with an EgR assay kit (ER-EIA “ABBOT” of Dynapot).

[5] = test system: bone marrow derived osteoclast precursor cells; test: Differentiation of bone marrow derived osteoclast precursor cells into mature osteoclasts (TRAP staining); assay type: cell-based, ddY mice; conditions: mean ± SD, n=3, 48-well plates
Method: Bone marrow cells separated from the vertebrae of ddY mice (male, 7-9 week old) were cultivated on cell culture plates for 3 days in the presence of a macrophage colony-stimulating factor (M-CSF, 10 ng/ml). The suspended cells were washed with PBS and removed whereas the cells adhering to the plates were used as osteoclast precursor cells. Following the addition of more M-CSF (10 ng/ml) and a soluble RANK ligand (sRANKL, 40 ng/ml), the precursors were cultivated for 3-4 days in order to induce the maturation of osteoclasts. Before this cultivation, either compound 1 or a solvent (ethanol) alone was added in order to see what effects they would have. The maturation of osteoclasts was evaluated by staining the cultivated cells with a tartrate resistant acid phosphatase (TRAP) and counting the number of trinuclear and higher TRAP stained cells. Table 1 and FIG. 1 show the mean and SD values for the experiment in which the number of mature osteoclasts that were produced per well in 48-well plates was evaluated for n=3.

T1 sequence (P03372 whole entry): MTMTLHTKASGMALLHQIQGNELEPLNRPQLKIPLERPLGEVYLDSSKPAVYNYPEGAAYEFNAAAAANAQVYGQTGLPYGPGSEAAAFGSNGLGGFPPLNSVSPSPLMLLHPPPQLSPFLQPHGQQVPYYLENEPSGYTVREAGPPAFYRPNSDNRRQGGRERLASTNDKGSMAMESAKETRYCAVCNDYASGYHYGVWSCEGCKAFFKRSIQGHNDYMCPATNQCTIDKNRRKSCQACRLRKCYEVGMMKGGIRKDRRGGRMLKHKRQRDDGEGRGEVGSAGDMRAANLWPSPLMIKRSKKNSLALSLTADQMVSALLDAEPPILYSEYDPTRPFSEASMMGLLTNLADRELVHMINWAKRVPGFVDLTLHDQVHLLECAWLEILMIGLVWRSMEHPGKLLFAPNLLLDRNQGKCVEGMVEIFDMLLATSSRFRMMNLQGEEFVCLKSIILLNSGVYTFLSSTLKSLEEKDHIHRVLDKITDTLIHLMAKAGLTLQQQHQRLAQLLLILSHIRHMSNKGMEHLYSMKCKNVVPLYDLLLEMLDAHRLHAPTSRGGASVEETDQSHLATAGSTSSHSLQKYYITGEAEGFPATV

C[C@]12CC[C@@H]3c4ccc(O)cc4C[C@@H](CCCCCCCCC[S+]([O-])CCCC(F)(F)C(F)(F)F)[C@H]3[C@@H]1CC[C@@H]2O (stereo partly shown) [Faslodex]
Objective response rate and duration of response to breast cancer (breast cancer; clinical tests, versus a SERM drug and an aromatase inhibitor): superior to a SERM drug and an aromatase inhibitor
Efficacy against tamoxifen-resistant breast cancer (breast cancer; tamoxifen-resistant breast cancer): effective against tamoxifen-resistant breast cancer

C[C@]12C[C@H](CCCCCCCCC(CCCC(F)(F)C(F)(F)C(F)(F)C(F)(F)F)C(=O)O)[C@@H]3c4ccc(O)cc4CC[C@H]3[C@@H]1CCC2=O (stereo partly drawn) [Compound 3, 10-(3-hydroxy-17-oxo-estra-1,3,5(10)-trien-11β-yl)-2-(4,4,5,5,6,6,7,7,7-nonafluoroheptyl)decanoic acid]
Percent suppression (%) of the increase in the weight of the uterus [1]: 99%

C[C@]12CC[C@@H]3c4ccc(O)cc4C[C@@H](CCCCCCCCC(CCCC(F)(F)C(F)(F)C(F)(F)C(F)(F)F)C(=O)O)[C@H]3[C@@H]1CCC2=O (single isomer, unassigned) [Compound 1, 10-(3-hydroxy-17-oxo-estra-1,3,5(10)-trien-7α-yl)-2-(4,4,5,5,6,6,7,7,7-nonafluoroheptyl)decanoic acid]
AUC(0-inf) [2]: 468 µg·h/mL
AUC(0-inf) [3]: 2.42 µg·h/mL
Percent suppression (%) of the increase in the weight of the uterus [1]: 96%
Intranuclear EgR content (in words) [4]: reduced the intranuclear EgR content in a dose-dependent manner
DC50 [4]: 0.0084 µM
No. of mature osteoclasts per well ([5]; M-CSF + sRANKL + compound at 10^−4 mol/L): 0 ± 0
No. of mature osteoclasts per well ([5]; M-CSF + sRANKL + compound at 10^−5 mol/L): 34 ± 10

C[C@]12CC[C@@H]3c4ccc(O)cc4C[C@@H](CCCCCCCCC(CCCC(F)(F)C(F)(F)C(F)(F)C(F)(F)F)C(=O)O)[C@H]3[C@@H]1CC[C@@H]2O (single isomer, unassigned) [Control compound 2, 10-(3,17β-dihydroxyestra-1,3,5(10)-trien-7α-yl)-2-(4,4,5,5,6,6,7,7,7-nonafluoroheptyl)decanoic acid, reference compound]
AUC∞ [2]: 469.73 µg·h/mL

C[C@]12CC[C@@H]3c4ccc(O)cc4C[C@@H](CCCCCCCCC(CCCC(F)(F)C(F)(F)C(F)(F)C(F)(F)F)C(=O)O)[C@H]3[C@@H]1CCC2=O (single isomer, unassigned) [Compound 2, 10-(3-hydroxy-17-oxo-estra-1,3,5(10)-trien-7α-yl)-2-(4,4,5,5,6,6,7,7,7-nonafluoroheptyl)decanoic acid]
AUC∞ [2]: 722.55 µg·h/mL
Intranuclear EgR content (in words) [4]: reduced the intranuclear EgR content in a dose-dependent manner
DC50 [4]: 0.0087 µM

C#C[C@]1(O)CCC2C3C(CC[C@@]21C)c1ccc(O)cc1C[C@H]3CCCCCCCCC(CCCC(F)(F)C(F)(F)C(F)(F)C(F)(F)F)C(=O)O (single isomer, unassigned) [Compound 4, 10-(3,17β-dihydroxy-17α-ethynyl-estra-1,3,5(10)-trien-7α-yl)-2-(4,4,5,5,6,6,7,7,7-nonafluoroheptyl)decanoic acid]
AUC∞ [2]: 202.10 µg·h/mL
AUC(0-inf) [3]: 3.8 µg·h/mL
Percent suppression (%) of the increase in the weight of the uterus ([1]; 10 mg/kg): 94%
Intranuclear EgR content (in words) [4]: reduced the intranuclear EgR content in a dose-dependent manner
DC50 [4]: 0.014 µM

C#C[C@]1(O)CCC2C3C(CC[C@@]21C)c1ccc(O)cc1C[C@H]3CCCCCCCCC(CCCC(F)(F)C(F)(F)C(F)(F)C(F)(F)F)C(=O)O (single isomer, unassigned) [Compound 5, 10-(3,17β-dihydroxy-17α-ethynyl-estra-1,3,5(10)-trien-7α-yl)-2-(4,4,5,5,6,6,7,7,7-nonafluoroheptyl)decanoic acid]
AUC∞ [2]: 661.00 µg·h/mL
Percent suppression (%) of the increase in the weight of the uterus ([1]; 10 mg/kg): 96%
Intranuclear EgR content (in words) [4]: reduced the intranuclear EgR content in a dose-dependent manner
DC50 [4]: 0.1 µM

C[C@]12CC[C@@H]3c4ccc(O)cc4C[C@@H](CCCCCCCCC(CCCC(F)(F)C(F)(F)C(F)(F)C(F)(F)F)C(=O)O)[C@H]3[C@@H]1CC[C@@H]2O (single isomer, unassigned) [Control compound 1, 10-(3,17β-dihydroxyestra-1,3,5(10)-trien-7α-yl)-2-(4,4,5,5,6,6,7,7,7-nonafluoroheptyl)decanoic acid, reference compound]
AUC(0-inf) [2]: 274 µg·h/mL
AUC(0-inf) [3]: 0.42 µg·h/mL
